Data: patent US5859061A, “Bis-sulfonamides hydroxamic acids as MMP inhibitors” (Pharmacia & Upjohn Company, priority 1998, dated 1999)

Experiments:
Assay type in all cases: biochemical
Settings in all cases: in vitro, pH 7.5, room temperature, 15 min preincubation, substrate 1-3 hours
stromelysin = stromelysin (Homo sapiens, UniProt P08254); experiment: particle concentration fluorescence assay, inhibition of stromelysin
Procedure: (§1) Inhibitory activity is evaluated in one or more of the MMP enzymes (stromelysin, gelatinase, and collagenase) in vitro using particle concentration fluorescence assay. An inhibitor binds to MMP enzymes which prevents the degradation of a substrate by stromelysin, gelatinase, or collagenase. The substrate has attached to it a fluorescein and a biotin moiety. The intact substrate then binds to an avidin-coated particle via the biotin moiety. Once the particle is washed and dried, a fluorescent signal is generated since the fluorescent group is attached to the particle. Without an inhibitor present, the substrate is degraded by MMP enzymes and the fluorescein group is removed, therefore, no fluorescent signal can be detected. Testing compounds are dissolved in DMSO to the desired concentration, then the solutions are diluted to 1:5 with MMP buffer (50 mM Tris-HCl, pH 7.5; 150 mM NaCl; 0.02% NaN3). Serial two-fold dilutions of each compound are prepared. A concentrated, activated enzyme solution is transferred into each plate of the testing compounds, and the mixture is incubated at room temperature for 15 minutes. Thawed MMP substrate is then added into all plates, and the plates are incubated in the dark for 1-3 hours at room temperature. At this point, the substrate mixture is mixed with 0.1% avidin-coated polystyrene particles. After 15 minutes, the fluorescence values are measured following filtration and washing of the beads. Ki values are then calculated.

gelatinase = experiment: particle concentration fluorescence assay, inhibition of gelatinase
Procedure: as §1

collagenase = experiment: particle concentration fluorescence assay, inhibition of collagenase
Procedure: as §1

Chain of stromelysin (P08254 100-477): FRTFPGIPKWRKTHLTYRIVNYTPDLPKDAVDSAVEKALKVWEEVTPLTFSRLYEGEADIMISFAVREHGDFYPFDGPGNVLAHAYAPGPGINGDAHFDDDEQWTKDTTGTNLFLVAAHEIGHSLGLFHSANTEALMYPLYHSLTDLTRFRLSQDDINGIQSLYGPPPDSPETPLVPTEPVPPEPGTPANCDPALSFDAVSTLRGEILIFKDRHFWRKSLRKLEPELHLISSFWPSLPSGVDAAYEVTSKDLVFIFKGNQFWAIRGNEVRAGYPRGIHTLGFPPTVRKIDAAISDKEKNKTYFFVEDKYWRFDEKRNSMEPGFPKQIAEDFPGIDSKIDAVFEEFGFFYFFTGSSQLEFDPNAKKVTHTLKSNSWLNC

SMILES | Ki (stromelysin) [nM] | Ki (gelatinase) [nM] | Ki (collagenase) [nM]
Cc1ccc(S(=O)(=O)NCC[C@@H](NS(=O)(=O)c2ccc(C)cc2)C(=O)NO)cc1 [Example 2, (R)-N-Hydroxy-2,4-bis-[[4-methylphenylsulfonyl]amino] butanamide] | 3.2 | 1.3 | 43
O=C(NO)C(CCNS(=O)(=O)c1ccc(F)cc1)NS(=O)(=O)c1ccc(F)cc1 (stereo not drawn) [Example 5, N-Hydroxy-2,4-bis-[[4-fluorophenylsulfonyl]amino] butanamide] | 45 | 16 | 60
Cc1ccc(S(=O)(=O)NCC[C@H](NS(=O)(=O)c2ccc(C)cc2)C(=O)NO)cc1 [Example 3, (S)-N-Hydroxy-2,4-bis-[[4-methylphenylsulfonyl]amino] butanamide] | 48 | 35 | 840
O=C(NO)[C@H](CCNS(=O)(=O)c1ccccc1)NS(=O)(=O)c1ccccc1 [Example 6, (S)-N-Hydroxy-2,4-bis-[[phenylsulfonyl]amino] butanamide] | 2000 | 284 | 3000
Cc1ccc(S(=O)(=O)NCCC(NS(=O)(=O)c2ccc(C)cc2)C(=O)NO)cc1 (stereo not drawn) [Example 1, N-Hydroxy-2,4-bis-[[4-methylphenylsulfonyl]amino] butanamide] | 2.4 | 0.94 | 48
COc1ccc(S(=O)(=O)NCCC(NS(=O)(=O)c2ccc(OC)cc2)C(=O)NO)cc1 (stereo not drawn) [Example 8, N-Hydroxy-2,4-bis-[[4-methoxyphenylsulfonyl]amino] butanamide] | 1.2 | 0.7 | 93
Cc1ccc(S(=O)(=O)NCC(NS(=O)(=O)c2ccc(C)cc2)C(=O)NO)cc1 (stereo not drawn) [Example 4, N-Hydroxy-2,3-bis-[[4-methylphenylsulfonyl]amino] propionamide] | 844 | 20 | 449
Cc1ccc(S(=O)(=O)NCCCC(NS(=O)(=O)c2ccc(C)cc2)C(=O)NO)cc1 (stereo not drawn) [Example 7, N-Hydroxy-2,5-bis-[[4-methylphenylsulfonyl]amino] valeramide] | 107 | 5.1 | 570
